These results are taken from patent US10787430B2, “Hemoglobin modifier compounds and uses thereof” (FronThera U.S. Pharmaceuticals LLC, priority 2016, dated 2020).

Data set [1] can be described thus: Microsome stability evaluation in human liver microsomes. It counts as in vitro ADME. As to conditions: read-out: Human microsome, t½. The text has this:
(§1) Example A6: Microsome Stability Evaluation in Human and Rat Liver Microsomes
In general terms: Liver microsomes are a subcellular fraction often used to study metabolism.

For data set [2], the target named is T1, hemoglobin (20% hct blood) (Homo sapiens, UniProt P68871+P69905).
T1 construct: Normal whole blood was collected from adult healthy donors; from tissue; host or cells: normal human whole blood (red blood cells), adult healthy donors
Put plainly: Dose-dependent whole blood OEC studies. The format is cell-based. To be noted: 37° C., 1 hr. The method, boiled down:
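Human whole blood at 20% hct shaken with 0.2, 0.5 or 1 mM compound at 37° C. for 1 hr; DMSO (1%) vehicle control. Oxygen equilibrium curves gave pO2 and Hb oxygen saturation (sO2), reported as delta p50%.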

The nature of data set [3]: Microsome stability evaluation in rat liver microsomes. It counts as in vitro ADME. As to conditions: read-out: Rat microsome, t½.
Excerpt: as §1

Data set [4] is described as follows: Solubility in JP1, JP2 and FaSSIF buffers. The format is physicochemical. To be noted: 25 °C, thermodynamic from solid, room temperature. On the procedure: Conditions: 1. JP1 buffer (84 mM HCl, 34.22 mM NaCl, pH 1.2); 2. JP2 buffer (50 mM phosphate buffer at pH 6.8); 3. FaSSIF buffer, pH 6.5 (Preparation: In about 0.9 L of purified water dissolve 0.420 g of NaOH (pellets), 4.470 g of NaH2PO4 (dihydrate), 6.186 g of NaCl; Adjust the pH to 6.5 with Sodium hydroxide 1N or Hydrochloric acid 1N, to make up to volume (1 L) with purified water at room temperature; Add 0.224 g of SIF Powder Original to about 0.5 L of pH 6.5 blank buffer and stir until powder is completely dissolved; Let stand for 2 hour. FaSSIF buffer is now ready to use.
Procedures: 1. accurately weighed about 2 mg test compounds and controls in whatman vials, then transferred 450 μL buffer in to the vials; 2. Filter pistons of miniuniprep vials were placed and compressed to the position of the liquid level to allow for contact. Vortexed for 2 minutes; 3. […] Miniunipreps were compressed to prepare the filtrates for injection into HPLC system; 5. Diluted the filtrates with buffer by a factor of 50 fold to make diluents; 6. Determined the test compound concentration of the diluents and filtrates using HPLC-UV.

A short description of data set [5]: Pharmacokinetic study in rats (plasma and red blood cell). As to conditions: male, Sprague-Dawley, rat, oral, 7.2 mg/kg. It counts as in vivo. On the procedure: Rats (Sprague-Dawley, male, 220-280 g) were dosed with GBT-440 (HCl salt) and one of three compounds corresponding to Example 27, 29, and 38. The rats received oral (7.2 mpk) doses of the compound. Rats were fasted overnight before the experiments and provided with food four hours after dosing. The oral dosing formulations was prepared as follows: approximately 10 mg of compound was weighed precisely to an appropriate size of container, to which was added 2 mL of vehicle 0.5% methylcellulose in water and 8 μL 0.5% sodium dodecyl sulfate. The mixture was then transferred into a glass vial, and volume adjusted to appropriate volume with 0.5% methylcellulose to obtain a final concentration of 0.72 mg·mL^−1, and then vortexed and sonicated briefly.
Whole blood sample collection: Blood samples ([…]) were collected at pre-dose, 15, 30 min, 1, 2, 4, 8, 12 and 24 h via jugular vein into tubes and anticoagulated with 3.2% TSC (trisodium citrate). The proportion of anticoagulant and blood was 1:9 (v/v). The sampling time was recorded accordingly. The tubes were gently inverted several times to ensure mixing. Then 10 μL doses of whole blood sample was transferred to a new EP tube and duplicated in wet ice.
Plasma sample collection: The remaining whole blood was processed by centrifugation at 5,500 rpm for 10 min. The supernate was collected. All these whole blood and plasma samples were kept below −20° C. for 1 h prior to analysis.
Plasma sample preparation: An aliquot of 20 μL of sample was transferred to sample treatment tube (1.5 mL EP tube), and then 100 μL ACN (0.5% FA) containing Verapamil, 5 ng·mL^−1 and Glibenclamide, 50 ng·mL^−1 for protein precipitation was added. The mixture was vortexed for 30 min, and then centrifuged at 13000 rpm for 5 min at room temperature. After that, 70 μL of supernatant was transferred to a 96-Well Plate, to which 70 μL of water added and then vortexed for 10 min at room temperature. An aliquot of 10 μL of this mixture was analyzied using LC-MS/MS.
Whole blood sample preparation: An aliquot of 10 μL of sample was transferred to sample treatment tube (1.5 mL EP tube), and then 500 μL ACN (0.5% FA) containing Verapamil, 5 ng·mL^−1 and Glibenclamide, 50 ng·mL^−1 for protein precipitation was added. The mixture was vortexed for 30 min, and then centrifuged at 13000 rpm for 5 min at room temperature. After that, 70 μL of supernatant was transferred to a 96-Well Plate, to which 70 μL of water was added and then vortexed for 10 min at room temperature. An aliquot of 10 μL of this mixture was analyzed using LC-MS/MS.
Plasma and red blood cell concentration-time data were processed by linear regression analysis. All pharmacokinetic parameters were calculated using non-compartment model of Pharsight Phoenix 6.3.
Red blood cell concentrations were calculated according to the method below: Mass balance equation: Cb·VB=Cp·Vp+CBC·VBC Where, Cb=Concentration of whole blood; VB=Volume of whole blood; Cp=Concentration of plasma; Vp=Volume of plasma; CBC=Concentration of blood cell; VBC=Volume of blood cell. VBC=H·VB, where H is the hematocrit number. Vp=(1−H)·VB

In brackets after ≈: the same amount, converted by molar mass. Where two headings read alike, the source gives them in different places.

T1 sequence (P69905 2-142 limits assumed): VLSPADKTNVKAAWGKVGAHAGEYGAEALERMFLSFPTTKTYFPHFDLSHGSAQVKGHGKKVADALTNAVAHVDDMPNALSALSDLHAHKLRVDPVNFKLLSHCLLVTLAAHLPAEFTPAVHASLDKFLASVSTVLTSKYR
T1 sequence (P68871 2-147 limits assumed): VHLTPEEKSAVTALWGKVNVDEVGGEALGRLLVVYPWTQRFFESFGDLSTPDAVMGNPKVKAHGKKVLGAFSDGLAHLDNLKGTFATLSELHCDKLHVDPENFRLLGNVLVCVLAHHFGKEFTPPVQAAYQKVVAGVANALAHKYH

The solubility is the concentration that dissolves in the medium under given conditions. The term Cmax denotes the maximum level reached in the sampled fluid or tissue. For `[2H]C([2H])(Oc1cccc(O)c1C=O)c1cncnc1-c1ccnn1C(C)C` [Example 38, 2-hydroxy-6-((4-(1-isopropyl-1H-pyrazol-5-yl)pyrimidin-5-yl)methoxy-d2)benzaldehyde], the half-life is 0.633 h in data set [1]; 0.3 h in data set [3]; 11 h in data set [5] (red blood cells, red blood cell, read-out: T1/2 RBC (converted)); 11 h in data set [5] (plasma, read-out: T1/2 Plasma (converted)). In addition, the “delta p50 0.2 mM” value in data set [2] (0.2 mM compound) is reported as −15.20%. Further, the “delta p50 0.5 mM” value in data set [2] (0.5 mM compound) is −46.80%. Further, the solubility at 24 h was 15.1 µg/mL (≈ 44.4 µM) in data set [4] (aqueous buffer, JP2 buffer (50 mM phosphate) pH 6.8, 24 hr, read-out: JP2 Solubility); 20 µg/mL (≈ 58.6 µM) in data set [4] (simulated gastric fluid, JP1 buffer pH 1.2, 24 hr, read-out: JP1 Solubility); 26.6 µg/mL (≈ 78.1 µM) in data set [4] (FaSSIF buffer pH 6.5, 24 hr, read-out: FaSSIF Solubility). The AUC(0-t) is 1730 µg·h/mL in data set [5] (red blood cells, red blood cell (calculated by mass balance from whole blood and plasma), read-out: AUC0-24 h RBC); 10.7 µg·h/mL in data set [5] (plasma, read-out: AUC0-24 h Plasma). Moreover, the Cmax in data set [5] (red blood cells, red blood cell (calculated by mass balance from whole blood and plasma), read-out: Cmax RBC) is 116 µg/mL; in data set [5] (plasma, read-out: Cmax Plasma), 0.753 µg/mL.
